Test results as given in US12459922B2 (Gilead Sciences, Inc., priority 2022, dated 2025).

Tested on: endogenous cellular STAT1 (phosphorylated at Tyr701) in NCI-H1373 cells
Assay: Phospho-STAT1 (Tyr701) LANCE Ultra TR-FRET Detection Assay
Format: cell-based
Details: 48 hours, phospho-STAT1 (Tyr701) induction, read-out: NH1373 pSTAT1 EC50
Experimental: Phospho-STAT1 (Tyr701 LANCE Ultra TR-FRET Detection Assay
d. LANCE Ultra phospho-STAT1 (Tyr701) kits are designed for the detection of phosphorylated STAT1 in cell lysates using a simple, homogeneous LANCE Ultra sandwich assay (Cat. #TRF4028M). This assay is intended for assessing compound induction of endogenous levels of cellular STAT1 (phosphorylated at Tyr701) in NCI-H1373 cells. The NCI-H1373 cells are cultured in RPMI 1640 media containing 10% heat inactivated FBS, GlutaMAX, 1% Penicillin-Streptomycin. An Echo acoustic liquid handler is used to transfer 60 nanoliters of compound dilutions using the Echo Qualified, 384-well polypropylene microplate clear flat bottom source plates into a Greiner (#781080) cell culture microplate. NCI-H1373 cells are seeded into these compound-spotted culture plates at 30,000 cells/well in a 60 uL volume in growth media. The plates are incubated in a 5% CO2 humidified incubator at 37° C. for 48 hours. […] After spinning the plate down at 300 rpm for 1 min, the plate is read on an EnVision plate reader set up for Eu3+ Cryptate and fluorescence emission is measured at two different wavelengths (665 nm and 620 nm). The HTRF ratio is then calculated […] for each well to determine the amount of pSTAT1 in the cell lysate, and the data is then normalized to 10 uM GS-1154611 positive and DMSO negative controls.

EC50 [nM]	SMILES
4.35	C[C@@H](CCCn1ccc2cc(-c3ncc(C(F)(F)F)c(N)n3)c(F)cc2c1=O)Nc1cn[nH]c(=O)c1C(F)(F)F [Example 100, 6-[4-amino-5-(trifluoromethyl)pyrimidin-2-yl]-7-fluoro-2-[(4S)-4-[[6-oxo-5-(trifluoromethyl)-1H-pyridazin-4-yl]amino]pentyl]isoquinolin-1-one]

Same assay, conditions: Homo sapiens, NCI-H1373, 48 h, phospho-STAT1 (Tyr701) induction, read-out: NH1373 pSTAT1 EC50

EC50 [nM]	SMILES
54.2	C[C@@H](CCCn1ccc2cc(-c3ccc(C(F)(F)CO)cn3)c(F)cc2c1=O)Nc1cn[nH]c(=O)c1C(F)(F)F [Example 75, 6-[5-(1,1-difluoro-2-hydroxy-ethyl)-2-pyridyl]-7-fluoro-2-[(4S)-4-[[6-oxo-5-(trifluoromethyl)-1H-pyridazin-4-yl]amino]pentyl]isoquinolin-1-one]
13.5	Cc1cnc(-c2cc3ccn(CCC[C@H](C)Nc4cn[nH]c(=O)c4C(F)(F)F)c(=O)c3c(F)c2F)nc1N [Example 77, (S)-6-(4-amino-5-methylpyrimidin-2-yl)-7,8-difluoro-2-(4-((6-oxo-5-(trifluoromethyl)-1,6-dihydropyridazin-4-yl)amino)pentyl)isoquinolin-1(2H)-one]
317	Cc1cnc(-c2cc3ncn(CCC[C@H](C)Nc4cn[nH]c(=O)c4C(F)(F)F)c(=O)c3cc2F)nc1N [Example 78, (S)-7-(4-amino-5-methylpyrimidin-2-yl)-6-fluoro-3-(4-((6-oxo-5-(trifluoromethyl)-1,6-dihydropyridazin-4-yl)amino)pentyl)quinazolin-4(3H)-one]
1500	Cc1cnc(N)nc1-c1cc2ncn(CCC[C@H](C)Nc3cn[nH]c(=O)c3C(F)(F)F)c(=O)c2cc1F [Example 79, (S)-7-(2-amino-5-methylpyrimidin-4-yl)-6-fluoro-3-(4-((6-oxo-5-(trifluoromethyl)-1,6-dihydropyridazin-4-yl)amino)pentyl)quinazolin-4(3H)-one]
479	Cc1cnc(N)nc1-c1cc2ccn(CCC[C@H](C)Nc3cn[nH]c(=O)c3C(F)(F)F)c(=O)c2c(F)c1F [Example 80, (S)-6-(2-amino-5-methylpyrimidin-4-yl)-7,8-difluoro-2-(4-((6-oxo-5-(trifluoromethyl)-1,6-dihydropyridazin-4-yl)amino)pentyl)isoquinolin-1(2H)-one]
4.26	C[C@@H](CCCn1ccc2cc(-c3ncc(C(F)(F)F)c(N)n3)c(F)c(F)c2c1=O)Nc1cn[nH]c(=O)c1C(F)(F)F [Example 81, (S)-6-(4-amino-5-(trifluoromethyl)pyrimidin-2-yl)-7,8-difluoro-2-(4-((6-oxo-5-(trifluoromethyl)-1,6-dihydropyridazin-4-yl)amino)pentyl)isoquinolin-1(2H)-one]
63.4	C[C@@H](CCCn1cnc2cc(-c3ncc(C(F)F)cn3)c(F)cc2c1=O)Nc1cn[nH]c(=O)c1C(F)(F)F [Example 82, (S)-7-(5-(difluoromethyl)pyrimidin-2-yl)-6-fluoro-3-(4-((6-oxo-5-(trifluoromethyl)-1,6-dihydropyridazin-4-yl)amino)pentyl)quinazolin-4(3H)-one]
58.2	C[C@@H](CCCn1cnc2cc(-c3ncc(C4CC4)cn3)c(F)cc2c1=O)Nc1cn[nH]c(=O)c1C(F)(F)F [Example 83, (S)-7-(5-cyclopropylpyrimidin-2-yl)-6-fluoro-3-(4-((6-oxo-5-(trifluoromethyl)-1,6-dihydropyridazin-4-yl)amino)pentyl)quinazolin-4(3H)-one]
263	C[C@@H](CCCn1ccc2cc(-c3ncc(S(C)(=O)=O)cn3)c(F)cc2c1=O)Nc1cn[nH]c(=O)c1C(F)(F)F [Example 84, (S)-7-fluoro-6-(5-(methylsulfonyl)pyrimidin-2-yl)-2-(4-((6-oxo-5-(trifluoromethyl)-1,6-dihydropyridazin-4-yl)amino)pentyl)isoquinolin-1(2H)-one]
113	O=c1[nH]ncc(NCCCCn2ccc3cc(-c4ncc(C(F)(F)F)cn4)c(F)c(F)c3c2=O)c1C(F)(F)F [Example 85, 7,8-difluoro-2-(4-((6-oxo-5-(trifluoromethyl)-1,6-dihydropyridazin-4-yl)amino)butyl)-6-(5-(trifluoromethyl)pyrimidin-2-yl)isoquinolin-1(2H)-one]
86.2	O=c1[nH]ncc(N[C@@H](CO)CCCn2ccc3cc(-c4ncc(C(F)(F)F)cn4)c(F)cc3c2=O)c1C(F)(F)F [Example 88, 7-fluoro-2-[(4R)-5-hydroxy-4-[[6-oxo-5-(trifluoromethyl)-1H-pyridazin-4-yl]amino]pentyl]-6-[5-(trifluoromethyl)pyrimidin-2-yl]isoquinolin-1-one]
40.5	C[C@@H](CC(F)(F)Cn1ccc2cc(-c3ncc(C(F)(F)F)cn3)c(F)cc2c1=O)Nc1cn[nH]c(=O)c1C(F)(F)F [Example 89, 2-[(4S)-2,2-difluoro-4-[[6-oxo-5-(trifluoromethyl)-1H-pyridazin-4-yl]amino]pentyl]-7-fluoro-6-[5-(trifluoromethyl)pyrimidin-2-yl]isoquinolin-1-one]
52	C[C@@H](CC(=O)Cn1ccc2cc(-c3ncc(C(F)(F)F)cn3)c(F)cc2c1=O)Nc1cn[nH]c(=O)c1C(F)(F)F [Example 90, 7-fluoro-2-[(4S)-2-oxo-4-[[6-oxo-5-(trifluoromethyl)-1H-pyridazin-4-yl]amino]pentyl]-6-[5-(trifluoromethyl)pyrimidin-2-yl]isoquinolin-1-one]
290	O=c1[nH]ncc(Nc2cccc(Cn3ccc4cc(-c5ncc(C(F)(F)F)cn5)c(F)cc4c3=O)c2)c1C(F)(F)F [Example 91, 7-fluoro-2-[[3-[[6-oxo-5-(trifluoromethyl)-1H-pyridazin-4-yl]amino]phenyl]methyl]-6-[5-(trifluoromethyl)pyrimidin-2-yl]isoquinolin-1-one]
11.1	C[C@@H](CCCn1ccc2cc(-c3ncc(N(C)C)cn3)c(F)cc2c1=O)Nc1cn[nH]c(=O)c1C(F)(F)F [Example 92, (S)-6-(5-(dimethylamino)pyrimidin-2-yl)-7-fluoro-2-(4-((6-oxo-5-(trifluoromethyl)-1,6-dihydropyridazin-4-yl)amino)pentyl)isoquinolin-1(2H)-one]
45.9	C[C@@H](CCCn1ccc2cc(-c3ncc(-c4cc(C(F)(F)F)n(C)n4)cn3)c(F)cc2c1=O)Nc1cn[nH]c(=O)c1C(F)(F)F [Example 93, (S)-7-fluoro-6-(5-(1-methyl-5-(trifluoromethyl)-1H-pyrazol-3-yl)pyrimidin-2-yl)-2-(4-((6-oxo-5-(trifluoromethyl)-1,6-dihydropyridazin-4-yl)amino)pentyl)isoquinolin-1(2H)-one]
22.8	C[C@@H](CCCn1ccc2cc(-c3ncc4c(n3)CCC4)c(F)cc2c1=O)Nc1cn[nH]c(=O)c1C(F)(F)F [Example 94, (S)-6-(6,7-dihydro-5H-cyclopenta[d]pyrimidin-2-yl)-7-fluoro-2-(4-((6-oxo-5-(trifluoromethyl)-1,6-dihydropyridazin-4-yl)amino)pentyl)isoquinolin-1(2H)-one]
97.1	Cc1cnc(-c2cc3ncn(CCC[C@H](C)Nc4cn[nH]c(=O)c4C(F)(F)F)c(=O)c3cc2F)nc1 [Example 95, (S)-6-fluoro-7-(5-methylpyrimidin-2-yl)-3-(4-((6-oxo-5-(trifluoromethyl)-1,6-dihydropyridazin-4-yl)amino)pentyl)quinazolin-4(3H)-one]
558	C[C@@H](CCCn1ccc2cc(-c3cc(F)c(N)cn3)c(F)cc2c1=O)Nc1cn[nH]c(=O)c1C(F)(F)F [Example 96, (S)-6-(5-amino-4-fluoropyridin-2-yl)-7-fluoro-2-(4-((6-oxo-5-(trifluoromethyl)-1,6-dihydropyridazin-4-yl)amino)pentyl)isoquinolin-1(2H)-one]
67.3	C[C@@H](CCCn1ccc2cc(-c3cc(C(F)(F)F)c(N)cn3)c(F)cc2c1=O)Nc1cn[nH]c(=O)c1C(F)(F)F [Example 97, (S)-6-(5-amino-4-(trifluoromethyl)pyridin-2-yl)-7-fluoro-2-(4-((6-oxo-5-(trifluoromethyl)-1,6-dihydropyridazin-4-yl)amino)pentyl)isoquinolin-1(2H)-one]
9.67	C[C@@H](CCCn1ccc2cc(-c3ncc(Cl)cn3)c(F)cc2c1=O)Nc1cn[nH]c(=O)c1C(F)(F)F [Example 98, (S)-6-(5-chloropyrimidin-2-yl)-7-fluoro-2-(4-((6-oxo-5-(trifluoromethyl)-1,6-dihydropyridazin-4-yl)amino)pentyl)isoquinolin-1(2H)-one]
1280	C[C@@H](CCCn1ccc2cc(-c3ncc(N4CC5(COC5)C4)cn3)c(F)cc2c1=O)Nc1cn[nH]c(=O)c1C(F)(F)F [Example 99, (S)-6-(5-(2-oxa-6-azaspiro[3.3]heptan-6-yl)pyrimidin-2-yl)-7-fluoro-2-(4-((6-oxo-5-(trifluoromethyl)-1,6-dihydropyridazin-4-yl)amino)pentyl)isoquinolin-1(2H)-one]
12.6	C[C@@H](CCCn1ccc2cc(-c3ncc(C#N)c(N)n3)c(F)cc2c1=O)Nc1cn[nH]c(=O)c1C(F)(F)F [Example 101, 4-amino-2-[7-fluoro-1-oxo-2-[(4S)-4-[[6-oxo-5-(trifluoromethyl)-1H-pyridazin-4-yl]amino]pentyl]-6-isoquinolyl]pyrimidine-5-carbonitrile]
